Data set [1] has as its target Platelet-derived growth factor receptor beta (Homo sapiens) (UniProt P09619). As to the kind of experiment: Inhibition of PDGFRbeta (unknown origin) in presence of [gamma33]-ATP at 10 uM by liquid scintillation counting analysis relative to control.
In data set [2] the test system is HepG2. Briefly: Antiproliferative activity against human HepG2 cells assessed as reduction in cell viability after 48 hrs by MTT assay. The data set is classed as functional, cell-based. The conditions noted are these: HepG2, 48 h. In general terms: Tetrazolium assays rely on reduction of a dye to a coloured formazan, in cell work by metabolically active cells.

The test system of data set [3] is WI-38. As to the kind of experiment: Cytotoxicity against human WI-38 cells assessed as cell viability after 48 hrs by MTT assay. The data set is classed as cell-based. The conditions noted are these: WI-38, 48 h.
Data set [4] concerns Hep 3B2. As to the kind of experiment: Antiproliferative activity against human Hep3B cells assessed as reduction in cell viability after 48 hrs by MTT assay. The data set is classed as functional, cell-based.
The test system of data set [5] is Huh-7. Briefly: Antiproliferative activity against human Huh-7 cells assessed as reduction in cell viability after 48 hrs by MTT assay. The data set is classed as functional, cell-based. To be noted: Huh-7, 48 h.
The target of data set [6] is T1, Mast/stem cell growth factor receptor Kit (Homo sapiens, UniProt P10721). Briefly: Inhibition of CKIT (unknown origin) in presence of [gamma33]-ATP at 10 uM by liquid scintillation counting analysis relative to control.
T1 sequence (P10721 whole entry): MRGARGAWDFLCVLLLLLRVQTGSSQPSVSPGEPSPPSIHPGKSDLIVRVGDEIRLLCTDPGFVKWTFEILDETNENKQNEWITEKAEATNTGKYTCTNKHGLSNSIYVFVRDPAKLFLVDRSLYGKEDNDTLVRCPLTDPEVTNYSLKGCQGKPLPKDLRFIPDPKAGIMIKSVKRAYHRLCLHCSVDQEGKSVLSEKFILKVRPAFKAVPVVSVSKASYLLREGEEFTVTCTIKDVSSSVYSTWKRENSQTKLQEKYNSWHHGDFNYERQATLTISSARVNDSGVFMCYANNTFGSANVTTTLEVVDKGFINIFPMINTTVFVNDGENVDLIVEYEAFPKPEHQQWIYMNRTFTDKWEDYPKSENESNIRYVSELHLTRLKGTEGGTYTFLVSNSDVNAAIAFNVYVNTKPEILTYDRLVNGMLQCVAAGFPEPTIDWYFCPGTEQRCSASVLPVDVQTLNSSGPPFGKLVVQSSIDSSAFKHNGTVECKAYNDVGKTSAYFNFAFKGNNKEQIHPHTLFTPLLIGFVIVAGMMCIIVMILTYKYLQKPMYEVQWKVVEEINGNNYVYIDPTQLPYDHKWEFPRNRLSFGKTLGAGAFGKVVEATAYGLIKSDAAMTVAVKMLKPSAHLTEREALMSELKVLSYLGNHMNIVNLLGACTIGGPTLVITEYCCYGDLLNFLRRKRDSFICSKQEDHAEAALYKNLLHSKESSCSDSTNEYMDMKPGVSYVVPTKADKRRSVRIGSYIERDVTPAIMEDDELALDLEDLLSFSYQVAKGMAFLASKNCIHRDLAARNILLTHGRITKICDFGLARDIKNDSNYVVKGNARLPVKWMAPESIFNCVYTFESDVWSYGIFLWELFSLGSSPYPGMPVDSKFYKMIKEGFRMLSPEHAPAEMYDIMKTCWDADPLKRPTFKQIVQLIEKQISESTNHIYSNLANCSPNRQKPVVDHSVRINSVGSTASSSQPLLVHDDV
The test system of data set [7] is HepG2. As to the kind of experiment: Antiproliferative activity against human HepG2 cells assessed as cell viability at 10 uM after 48 hrs by MTT assay relative to control. The data set is classed as functional. To be noted: read-out: Activity.
Data set [8] addresses Dual specificity mitogen-activated protein kinase kinase 1 (Homo sapiens) (UniProt Q02750). Briefly: Inhibition of MEK-1 (unknown origin) in presence of [gamma33]-ATP at 10 uM by liquid scintillation counting analysis relative to control.
In data set [9] the target is T2, Platelet-derived growth factor receptor alpha (Homo sapiens, UniProt P16234). As to the kind of experiment: Inhibition of PDGFRalpha (unknown origin) in presence of [gamma33]-ATP at 10 uM by liquid scintillation counting analysis relative to control.
T2 sequence (P16234 whole entry): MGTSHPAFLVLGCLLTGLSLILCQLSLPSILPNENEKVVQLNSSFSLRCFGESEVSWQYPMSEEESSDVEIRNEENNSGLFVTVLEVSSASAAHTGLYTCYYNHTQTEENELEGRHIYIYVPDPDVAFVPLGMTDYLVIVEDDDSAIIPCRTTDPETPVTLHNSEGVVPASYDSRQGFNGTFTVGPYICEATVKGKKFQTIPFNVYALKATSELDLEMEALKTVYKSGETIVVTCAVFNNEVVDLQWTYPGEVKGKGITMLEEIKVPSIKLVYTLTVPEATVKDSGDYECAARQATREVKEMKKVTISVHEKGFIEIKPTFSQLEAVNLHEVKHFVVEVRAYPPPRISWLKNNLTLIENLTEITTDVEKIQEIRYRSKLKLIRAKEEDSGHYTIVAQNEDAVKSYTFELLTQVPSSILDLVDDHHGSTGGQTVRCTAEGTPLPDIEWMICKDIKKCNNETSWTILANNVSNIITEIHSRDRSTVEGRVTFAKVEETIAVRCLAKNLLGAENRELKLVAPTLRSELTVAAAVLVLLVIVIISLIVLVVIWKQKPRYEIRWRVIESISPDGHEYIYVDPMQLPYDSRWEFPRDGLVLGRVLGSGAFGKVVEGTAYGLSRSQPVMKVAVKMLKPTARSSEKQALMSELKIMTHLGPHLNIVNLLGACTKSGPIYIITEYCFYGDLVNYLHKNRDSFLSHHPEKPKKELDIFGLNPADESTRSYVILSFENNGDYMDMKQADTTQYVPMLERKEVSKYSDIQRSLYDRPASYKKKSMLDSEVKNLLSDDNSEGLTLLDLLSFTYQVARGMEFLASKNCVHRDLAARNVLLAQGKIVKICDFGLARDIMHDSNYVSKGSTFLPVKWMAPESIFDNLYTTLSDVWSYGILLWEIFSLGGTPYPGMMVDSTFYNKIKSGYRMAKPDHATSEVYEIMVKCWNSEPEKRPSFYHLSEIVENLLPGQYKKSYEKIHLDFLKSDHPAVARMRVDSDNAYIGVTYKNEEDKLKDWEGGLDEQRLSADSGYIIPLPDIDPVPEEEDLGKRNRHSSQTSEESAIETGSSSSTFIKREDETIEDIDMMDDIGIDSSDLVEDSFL
Data set [10] has as its system Hep 3B2. Briefly: Antiproliferative activity against human Hep3B cells assessed as cell viability at 10 uM after 48 hrs by MTT assay relative to control. The conditions noted are these: read-out: Activity. The data set is classed as functional.
In data set [11] the test system is Huh-7. Briefly: Antiproliferative activity against human Huh-7 cells assessed as cell viability at 10 uM after 48 hrs by MTT assay relative to control. The data set is classed as functional. To be noted: read-out: Activity.
Data set [12] addresses T3, Serine/threonine-protein kinase A-Raf (Homo sapiens) (UniProt P10398).
T3 sequence (whole entry): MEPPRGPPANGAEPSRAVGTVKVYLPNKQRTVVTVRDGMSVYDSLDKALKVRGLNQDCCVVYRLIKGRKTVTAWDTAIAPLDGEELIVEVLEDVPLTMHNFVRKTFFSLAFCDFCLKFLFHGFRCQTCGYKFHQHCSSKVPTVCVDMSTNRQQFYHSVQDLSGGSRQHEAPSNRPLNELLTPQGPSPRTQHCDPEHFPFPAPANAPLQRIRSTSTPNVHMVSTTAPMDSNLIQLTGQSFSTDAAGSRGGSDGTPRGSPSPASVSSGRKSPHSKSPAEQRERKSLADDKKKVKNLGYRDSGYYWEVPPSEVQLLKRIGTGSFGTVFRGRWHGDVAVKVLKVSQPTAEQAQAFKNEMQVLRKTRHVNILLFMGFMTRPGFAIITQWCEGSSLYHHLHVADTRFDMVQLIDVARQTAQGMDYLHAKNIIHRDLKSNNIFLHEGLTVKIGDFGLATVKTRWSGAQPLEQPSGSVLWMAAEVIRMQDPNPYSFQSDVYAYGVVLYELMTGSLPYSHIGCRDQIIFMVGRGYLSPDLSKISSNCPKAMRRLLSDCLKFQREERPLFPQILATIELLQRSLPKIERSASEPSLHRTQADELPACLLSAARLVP
Briefly: Inhibition of A-Raf (unknown origin) in presence of [gamma33]-ATP at 10 uM by liquid scintillation counting analysis relative to control.

In data set [13] the test system is HepG2. Briefly: Induction of necrosis in human HepG2 cells assessed as increase in LDH release at 1.95 uM. The data set is classed as functional. (In general: LDH leaks from cells whose membrane has failed.)
In data set [14] the target is hERG (KCNH2) (Homo sapiens, UniProt Q12809). Briefly: Potency index, ratio of E-4031 IC50 to compound IC50 for inhibition of human ERG. The conditions noted are these: read-out: Ratio IC50.
For data set [15], the target named is T2, Platelet-derived growth factor receptor alpha. Briefly: Inhibition of PDGFRalpha (unknown origin) in presence of [gamma33]-ATP by liquid scintillation counting analysis.
Data set [16] concerns the target T4, Vascular endothelial growth factor receptor 2 (Homo sapiens, UniProt P35968). As to the kind of experiment: Inhibition of VEGFR2 autophosphorylation in VEGF-stimulated human HepG2 cells after 2 hrs Western blot analysis. To be noted: dose 1-3 µM. In general terms: A western blot detects proteins with antibodies after separation by electrophoresis.
Data set [17] concerns the target T1, Mast/stem cell growth factor receptor Kit. Briefly: Inhibition of CKIT (unknown origin) in presence of [gamma33]-ATP by liquid scintillation counting analysis.
The target of data set [18] is T5, Vascular endothelial growth factor receptor 3 (Homo sapiens, UniProt P35916). Briefly: Inhibition of Flt4 (unknown origin) in presence of [gamma33]-ATP at 10 uM by liquid scintillation counting analysis relative to control.
For data set [19], the target named is T5, Vascular endothelial growth factor receptor 3. As to the kind of experiment: Inhibition of Flt4 (unknown origin) in presence of [gamma33]-ATP by liquid scintillation counting analysis.
In data set [20] the target is T4, Vascular endothelial growth factor receptor 2. As to the kind of experiment: Inhibition of KDR (unknown origin) in presence of [gamma33]-ATP by liquid scintillation counting analysis.
Data set [21] relates to HepG2. As to the kind of experiment: Induction of apoptosis in human HepG2 cells assessed as increase in caspase 3/7 activity at 1.95 uM. The data set is classed as functional.
In data set [22] the target is RAF proto-oncogene serine/threonine-protein kinase (Homo sapiens) (UniProt P04049). Briefly: Inhibition of C-Raf (unknown origin) in presence of [gamma33]-ATP at 10 uM by liquid scintillation counting analysis relative to control.

Platelet-derived growth factor receptor beta (Homo sapiens), sequence (P09619 whole entry): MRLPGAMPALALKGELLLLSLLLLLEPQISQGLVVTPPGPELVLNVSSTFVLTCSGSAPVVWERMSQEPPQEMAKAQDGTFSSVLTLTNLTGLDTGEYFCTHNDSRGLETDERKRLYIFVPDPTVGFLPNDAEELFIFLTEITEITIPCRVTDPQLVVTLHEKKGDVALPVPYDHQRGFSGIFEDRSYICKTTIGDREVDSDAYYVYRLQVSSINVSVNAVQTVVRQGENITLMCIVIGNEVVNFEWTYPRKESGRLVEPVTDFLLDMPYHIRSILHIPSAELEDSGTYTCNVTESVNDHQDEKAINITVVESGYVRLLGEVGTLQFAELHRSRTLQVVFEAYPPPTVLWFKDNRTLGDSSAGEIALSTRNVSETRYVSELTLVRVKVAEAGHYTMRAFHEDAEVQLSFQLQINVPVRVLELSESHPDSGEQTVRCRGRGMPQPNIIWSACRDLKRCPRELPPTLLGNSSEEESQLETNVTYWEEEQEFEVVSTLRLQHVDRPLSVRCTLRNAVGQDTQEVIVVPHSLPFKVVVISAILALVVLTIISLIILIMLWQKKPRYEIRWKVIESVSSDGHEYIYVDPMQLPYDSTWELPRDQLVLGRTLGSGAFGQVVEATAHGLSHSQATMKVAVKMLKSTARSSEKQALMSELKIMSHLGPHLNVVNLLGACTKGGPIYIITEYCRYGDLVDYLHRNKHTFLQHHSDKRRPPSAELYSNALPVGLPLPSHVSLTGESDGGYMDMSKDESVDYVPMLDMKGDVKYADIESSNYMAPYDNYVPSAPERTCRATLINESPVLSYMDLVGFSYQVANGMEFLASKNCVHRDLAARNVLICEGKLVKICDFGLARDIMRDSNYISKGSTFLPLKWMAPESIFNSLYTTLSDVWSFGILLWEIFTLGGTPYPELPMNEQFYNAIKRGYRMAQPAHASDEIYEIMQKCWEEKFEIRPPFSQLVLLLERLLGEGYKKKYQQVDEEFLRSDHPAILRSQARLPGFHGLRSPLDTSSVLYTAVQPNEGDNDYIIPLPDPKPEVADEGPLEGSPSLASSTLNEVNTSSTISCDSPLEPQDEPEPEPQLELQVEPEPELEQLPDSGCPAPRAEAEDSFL
T4 sequence (P35968 whole entry): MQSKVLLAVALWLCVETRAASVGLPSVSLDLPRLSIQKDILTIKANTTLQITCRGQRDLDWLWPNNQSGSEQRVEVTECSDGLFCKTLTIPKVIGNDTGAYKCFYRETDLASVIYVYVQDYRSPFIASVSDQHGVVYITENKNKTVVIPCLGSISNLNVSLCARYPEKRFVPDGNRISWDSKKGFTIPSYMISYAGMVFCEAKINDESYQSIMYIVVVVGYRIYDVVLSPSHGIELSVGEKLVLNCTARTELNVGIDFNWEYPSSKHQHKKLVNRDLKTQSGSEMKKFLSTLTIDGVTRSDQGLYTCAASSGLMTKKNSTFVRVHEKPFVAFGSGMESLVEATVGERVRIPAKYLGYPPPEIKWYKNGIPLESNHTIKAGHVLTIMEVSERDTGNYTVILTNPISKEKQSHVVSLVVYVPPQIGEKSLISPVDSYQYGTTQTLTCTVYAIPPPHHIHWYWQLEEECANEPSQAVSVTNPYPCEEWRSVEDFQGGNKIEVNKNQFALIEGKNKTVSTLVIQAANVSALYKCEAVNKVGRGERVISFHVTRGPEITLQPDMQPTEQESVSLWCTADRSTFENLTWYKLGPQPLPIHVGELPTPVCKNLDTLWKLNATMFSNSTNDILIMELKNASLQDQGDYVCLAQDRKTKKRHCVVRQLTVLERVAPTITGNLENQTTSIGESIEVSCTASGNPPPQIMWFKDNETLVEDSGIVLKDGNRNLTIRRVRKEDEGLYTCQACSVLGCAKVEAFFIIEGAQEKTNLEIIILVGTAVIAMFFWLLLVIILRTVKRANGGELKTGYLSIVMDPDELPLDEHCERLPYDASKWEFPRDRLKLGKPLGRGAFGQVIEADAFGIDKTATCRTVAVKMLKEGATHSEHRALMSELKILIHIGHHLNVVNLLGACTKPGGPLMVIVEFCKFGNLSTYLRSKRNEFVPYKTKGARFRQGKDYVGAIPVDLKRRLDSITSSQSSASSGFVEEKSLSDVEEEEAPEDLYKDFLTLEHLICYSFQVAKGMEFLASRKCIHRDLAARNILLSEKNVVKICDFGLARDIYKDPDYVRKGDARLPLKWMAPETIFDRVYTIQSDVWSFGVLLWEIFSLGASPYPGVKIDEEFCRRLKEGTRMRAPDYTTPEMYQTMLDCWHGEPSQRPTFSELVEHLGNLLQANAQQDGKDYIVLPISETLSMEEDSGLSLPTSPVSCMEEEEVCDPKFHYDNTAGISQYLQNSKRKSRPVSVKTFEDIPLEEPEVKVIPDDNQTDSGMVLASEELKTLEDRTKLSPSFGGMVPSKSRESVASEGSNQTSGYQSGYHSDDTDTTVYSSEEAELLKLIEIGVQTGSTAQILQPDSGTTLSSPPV
Dual specificity mitogen-activated protein kinase kinase 1 (Homo sapiens), sequence (Q02750 whole entry): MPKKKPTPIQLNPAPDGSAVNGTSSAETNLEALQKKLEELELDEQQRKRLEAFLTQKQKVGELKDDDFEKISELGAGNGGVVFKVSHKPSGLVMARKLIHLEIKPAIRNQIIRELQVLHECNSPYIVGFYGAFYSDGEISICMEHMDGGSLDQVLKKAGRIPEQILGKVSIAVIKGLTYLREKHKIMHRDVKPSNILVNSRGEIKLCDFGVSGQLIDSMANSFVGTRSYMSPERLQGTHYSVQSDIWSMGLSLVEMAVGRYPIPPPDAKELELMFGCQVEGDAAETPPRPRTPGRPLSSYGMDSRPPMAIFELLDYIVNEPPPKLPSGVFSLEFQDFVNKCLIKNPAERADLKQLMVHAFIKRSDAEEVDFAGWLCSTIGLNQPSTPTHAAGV

What is called inhibition is the change of the read-out against control, counted positive when it falls. The IC50 is the point on the concentration scale where inhibition reaches its midpoint. For the compound `CNC(=O)c1cc(Oc2ccc(NC(=O)Nc3ccc(Cl)c(C(F)(F)F)c3)cc2)ccn1` [SORAFENIB], the inhibition in data set [1] was found to be 99.1%; in [6], 65.8%; in [8], 37.7%; in [9], 99.4%; in data set [12], 99%. In addition, the IC50 was 7.22 µM in data set [2], over 30 µM in data set [3], 8.62 µM in data set [4] and 7.55 µM in data set [5]. Moreover, the values for the viability at 10 µM in data set [7], in data set [10] and in [11] were 35%, 33% and 21%, respectively.
Regarding `CNC(=O)c1cc(-n2ccc3cc(NC(=O)Nc4ccc(N5CCN(C)CC5)c(C(F)(F)F)c4)ccc32)ccn1`, the inhibition in data set [1] is 47.5%; in data set [6], 70.5%; in [8] it was 11.5%; in data set [9] it was 71.5%; in data set [16] it was “Dose-dependent effect”; in [18], 93.5%. The figures for the inhibition in data set [12] and in data set [22] were -4% and -0.5%, respectively. Further, the half-maximal inhibitory concentration (IC50) in data set [2] was 1.95 µM; in data set [3] it was over 30 µM; in data set [4], 8.01 µM; in [5] it was 4.31 µM; in [15], over 5 µM; in [17], 5 µM. The half-inhibitory concentration (IC50) came to 0.0957 µM in [19] and 0.173 µM in data set [20]. The Activity in data set [13] came out at 21.5%; in data set [21], 67.45%. The selectivity ratio in data set [14] came out at 3720. Also, the viability at 10 µM in data set [7] worked out at 27%; in [10], 92%; in data set [11] it was 20%.

Source of the values: ChEMBL document CHEMBL4732124 (Eur J Med Chem, 2021).
